Laboratory results taken from PubChem BioAssay (NCI).
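Cultured in 96-well plates, cells were exposed to test compound for 48 hours across five concentrations. Definition used: TGI = concentration required for complete inhibition of growth.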

How the values were obtained:
Test in all cases: NCI tumour cell line growth inhibition, 48 h
SNB-78 CNS = system: SNB-78 CNS
KM20L2 colon = system: KM20L2 colon
DMS 273 small cell lung = system: DMS 273 small cell lung
M19-MEL melanoma = system: M19-MEL melanoma
XF 498 CNS = system: XF 498 CNS
DMS 114 small cell lung = system: DMS 114 small cell lung
HOP-18 NSCLC = system: HOP-18 NSCLC
LXFL 529 NSCLC = system: LXFL 529 NSCLC
RXF-631 renal = system: RXF-631 renal
P388/ADR leukemia = system: P388/ADR leukemia
P388 leukemia = system: P388 leukemia
SN12K1 renal = system: SN12K1 renal

Ic1ncnc2c1ncn2C1CCCO1 (stereo unspecified)
TGI (SNB-78 CNS): > 100 µM
TGI (KM20L2 colon): > 100 µM
TGI (DMS 273 small cell lung): > 100 µM
TGI (M19-MEL melanoma): > 100 µM
TGI (XF 498 CNS): > 100 µM
TGI (DMS 114 small cell lung): > 100 µM
TGI (HOP-18 NSCLC): > 100 µM

COc1cc2c[n+](C)c3c4cc5c(cc4ccc3c2cc1OC)OCO5
TGI (SNB-78 CNS): > 25.9 µM
TGI (LXFL 529 NSCLC): 4.67 µM
TGI (KM20L2 colon): 3.47 µM
TGI (DMS 273 small cell lung): 11.6 µM
TGI (M19-MEL melanoma): 2.9 µM
TGI (XF 498 CNS): 9.95 µM
TGI (DMS 114 small cell lung): 5.92 µM
TGI (HOP-18 NSCLC): 93.6 µM
TGI (RXF-631 renal): > 100 µM

COC(=O)C(C)NP(=O)(N1CC1)N1CC1 (stereo unspecified)
TGI (SNB-78 CNS): > 100 µM
TGI (LXFL 529 NSCLC): > 100 µM
TGI (KM20L2 colon): > 100 µM
TGI (DMS 273 small cell lung): > 100 µM
TGI (XF 498 CNS): > 100 µM
TGI (DMS 114 small cell lung): > 100 µM
TGI (RXF-631 renal): > 100 µM

O=C1c2ccccc2C(O)(C(=O)O)C1(O)CC=C(Cl)Cl (stereo unspecified)
TGI (SNB-78 CNS): > 125 µM
TGI (KM20L2 colon): > 125 µM
TGI (DMS 273 small cell lung): > 125 µM
TGI (P388/ADR leukemia): > 70.3 µM
TGI (M19-MEL melanoma): > 125 µM
TGI (P388 leukemia): > 125 µM
TGI (XF 498 CNS): > 125 µM
TGI (SN12K1 renal): > 125 µM
TGI (DMS 114 small cell lung): > 125 µM
TGI (HOP-18 NSCLC): > 125 µM

COc1c2nc(CCl)[nH]c(=O)c2c(OC)c2nc(CCl)[nH]c(=O)c12
TGI (SNB-78 CNS): > 100 µM
TGI (LXFL 529 NSCLC): > 100 µM
TGI (KM20L2 colon): > 100 µM
TGI (DMS 273 small cell lung): > 100 µM
TGI (M19-MEL melanoma): > 100 µM
TGI (XF 498 CNS): > 100 µM
TGI (DMS 114 small cell lung): > 100 µM
TGI (HOP-18 NSCLC): > 100 µM
